Test results: patent US12303520B2, “Aqueous nebulization composition” (Nephron Pharmaceuticals Corporation, priority 2017, dated 2025)

Columns and labels:
[1] = background statement, cited from earlier work
[2] = Solubility of budesonide in solvents; type: physicochemical
From the text: Previous efforts to provide stable, inhalable budesonide solutions, including use of cyclodextrins or use of a modified budesonide, have not been proven pharmaceutically acceptable.

Solubility of budesonide in pure glycerol [2]: not to be soluble
SMILES: CCC[C@@H]1O[C@@H]2C[C@H]3C4CCC5=CC(=O)C=CC5(C)[C@H]4[C@@H](O)CC3(C)[C@]2(C(=O)CO)O1 (mixture of isomers) [Budesonide, (RS)-11-beta, 16-alpha, 17,21-tetrahydroxypregna-I, 4-diene-3,20-dione cyclic 16,17-acetal with butyraldehyde]
Solubility of budesonide in heptanes ([1]; heptanes): practically insoluble
Solubility of budesonide in alcohols ([1]; many alcohols (particularly polyhydric alcohols and organic, water-soluble glycols)): sparingly soluble
Solubility of budesonide in water ([1]; water): practically insoluble
